# Results published in paper PMC2231820 (The Journal of General Physiology, 2000).
# Changes are numbered by the printed parent chain. Like-named read-outs stand apart in the source and are kept apart here.
# Assays:
# Format in all cases: cell-based
# [1] = target: T1, bovine rod (Brod) CNG channel, α homomultimer (Bos taurus, UniProt Q00194); conditions: for Hill coefficient n of cGMP activation: six patches
# T1 sequence (Q00194 1-690): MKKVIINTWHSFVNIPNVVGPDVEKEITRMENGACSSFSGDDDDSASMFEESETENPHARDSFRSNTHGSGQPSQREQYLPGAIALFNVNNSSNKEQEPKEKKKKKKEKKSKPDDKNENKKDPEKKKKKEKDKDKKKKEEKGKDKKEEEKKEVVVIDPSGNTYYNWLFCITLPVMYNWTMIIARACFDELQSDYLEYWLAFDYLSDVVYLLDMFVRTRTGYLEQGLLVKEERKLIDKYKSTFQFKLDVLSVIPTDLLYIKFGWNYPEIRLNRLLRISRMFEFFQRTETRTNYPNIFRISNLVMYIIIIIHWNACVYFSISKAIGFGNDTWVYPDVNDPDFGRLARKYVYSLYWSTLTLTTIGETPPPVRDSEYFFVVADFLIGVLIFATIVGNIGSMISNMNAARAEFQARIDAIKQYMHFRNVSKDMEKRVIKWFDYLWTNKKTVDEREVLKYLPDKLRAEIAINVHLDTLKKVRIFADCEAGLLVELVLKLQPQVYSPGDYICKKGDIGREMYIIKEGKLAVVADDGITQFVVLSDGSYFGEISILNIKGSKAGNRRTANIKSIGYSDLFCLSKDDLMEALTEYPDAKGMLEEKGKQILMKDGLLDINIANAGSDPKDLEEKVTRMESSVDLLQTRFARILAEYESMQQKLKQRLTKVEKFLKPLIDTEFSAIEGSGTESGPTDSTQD
# [2] = target: T2, Molf G204E CNG channel (Mus musculus, UniProt Q62398, G204E/M2V)
# T2 sequence (Q62398 1-664 M2V/G204E): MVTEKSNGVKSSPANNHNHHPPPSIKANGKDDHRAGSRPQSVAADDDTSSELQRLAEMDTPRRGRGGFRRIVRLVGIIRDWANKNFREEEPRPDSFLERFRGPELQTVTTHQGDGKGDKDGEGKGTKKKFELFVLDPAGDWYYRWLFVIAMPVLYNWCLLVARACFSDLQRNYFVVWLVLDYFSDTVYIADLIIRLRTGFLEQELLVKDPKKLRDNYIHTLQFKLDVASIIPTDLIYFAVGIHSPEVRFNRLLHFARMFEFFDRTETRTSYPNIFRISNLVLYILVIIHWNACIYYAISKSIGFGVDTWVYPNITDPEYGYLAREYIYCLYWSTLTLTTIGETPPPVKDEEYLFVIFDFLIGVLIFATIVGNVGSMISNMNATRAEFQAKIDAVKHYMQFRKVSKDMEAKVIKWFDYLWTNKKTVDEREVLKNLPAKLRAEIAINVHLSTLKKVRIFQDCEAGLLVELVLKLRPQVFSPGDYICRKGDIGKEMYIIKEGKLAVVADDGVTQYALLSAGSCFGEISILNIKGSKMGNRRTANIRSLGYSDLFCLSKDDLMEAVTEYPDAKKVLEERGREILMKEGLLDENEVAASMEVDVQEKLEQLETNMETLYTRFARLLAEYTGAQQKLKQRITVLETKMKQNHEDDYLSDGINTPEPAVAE
# [3] = target: T3, Rolf G204E CNG channel (Rattus norvegicus, UniProt Q00195, G204E); conditions: for Hill coefficient n of cGMP activation: 2 patches
# T3 sequence (Q00195 1-664 G204E): T2 sequence (Q62398 1-664 M2V/G204E) with V2M, S50P, R69Q, I77V, G115D, D118G, A297V, E611D, A661T, V662A
# [4] = target: T4, mouse olfactory (Molf) CNG channel, α homomultimer (Mus musculus, UniProt Q62398, M2V)
# T4 sequence (Q62398 1-664 M2V): T2 sequence (Q62398 1-664 M2V/G204E) with E204G
# [5] = read-out: Percent inhibition by tetracaine
compound,measurement,setting,value
"CCCCNc1ccc(C(=O)OCCN(C)C)cc1 [Tetracaine, tetracaine]",inhibition at 40 µM,[1]; [5],94.1%
same,IC50,[2],10.8 µM
same,inhibition at 40 µM,[2]; [5],78.3%
same,inhibition at 40 µM,[3]; [5],76.4%
same,inhibition at 40 µM,[4]; [5],18.8%
Nc1nc2c(ncn2[C@@H]2O[C@@H]3COP(=O)(O)O[C@H]3[C@H]2O)c(=O)[nH]1 [cGMP],I/Imax of cGMP-activated current,"[1]; Brod, 10 μM cGMP, +100 mV",0.20
same,Hill coefficient n of cGMP activation,"[1]; Brod, +100 mV",2.0
same,Hill coefficient n of cGMP activation,"[1]; Brod, −100 mV",2.0
same,I/Imax of cGMP-activated current,"[2]; Molf G204E, 1 μM cGMP, +100 mV",0.15
same,Hill coefficient n of cGMP activation,"[3]; Rolf G204E, +100 mV",1.7
same,Hill coefficient n of cGMP activation,"[3]; Rolf G204E, −100 mV",1.7
same,I/Imax of cGMP-activated current,"[4]; Molf, 1 μM cGMP, +100 mV",0.15
diacylglycerol [DAG],decrease of maximal current by DAG,"[1]; Brod, 1.5 μM DAG, saturating 2 mM cGMP",> 80%
same,DAG concentration that fully suppresses cGMP-activated currents,"[1]; Brod, saturating cGMP",~3 µM
same,decrease of maximal current by DAG,"[2]; Molf G204E, 1.5 μM DAG, saturating 100 μM cGMP",> 80%
same,DAG maximal percent inhibition (INmax),"[2]; Molf G204E, saturating 100 μM cGMP",100%
same,DAG concentration that fully suppresses cGMP-activated currents,"[2]; Molf G204E, saturating cGMP",~3 µM
same,DAG maximal percent inhibition (INmax),"[3]; Rolf G204E, saturating 100 μM cGMP",100%
same,DAG concentration that fully suppresses cGMP-activated currents,"[3]; Rolf G204E, saturating cGMP",~3 µM
same,inhibition of cGMP-activated current by DAG (in words),"[4]; Molf, 12 μM DAG, saturating cGMP",only partial inhibition
same,DAG maximal percent inhibition (INmax),"[4]; Molf, saturating 100 μM cGMP",17%
same,Hill coefficient n of DAG inhibition,"[4]; Molf, saturating 100 μM cGMP",0.8
